These results are taken from patent publication US20170360795A1, “TREATMENT OF CANCERS USING PI3 KINASE ISOFORM MODULATORS” (INFINITY PHARMACEUTICALS, INC., priority 2013, published 2017).

One test deals with PI3K δ (Homo sapiens, UniProt O00329). Description: In vitro IC50, PI3K δ (Table 3). The format is biochemical. Set-up: purchased Upstate. The source says:
(§1) Other commercial kits or systems for assaying PI3K activities are available. […] An exemplary system is PI 3-Kinase (human) HTRF™ Assay from Upstate.

The target in another test is T1, PI3K α (Homo sapiens, UniProt P42336).
T1 construct: purchased Upstate
T1 sequence (P42336 whole entry): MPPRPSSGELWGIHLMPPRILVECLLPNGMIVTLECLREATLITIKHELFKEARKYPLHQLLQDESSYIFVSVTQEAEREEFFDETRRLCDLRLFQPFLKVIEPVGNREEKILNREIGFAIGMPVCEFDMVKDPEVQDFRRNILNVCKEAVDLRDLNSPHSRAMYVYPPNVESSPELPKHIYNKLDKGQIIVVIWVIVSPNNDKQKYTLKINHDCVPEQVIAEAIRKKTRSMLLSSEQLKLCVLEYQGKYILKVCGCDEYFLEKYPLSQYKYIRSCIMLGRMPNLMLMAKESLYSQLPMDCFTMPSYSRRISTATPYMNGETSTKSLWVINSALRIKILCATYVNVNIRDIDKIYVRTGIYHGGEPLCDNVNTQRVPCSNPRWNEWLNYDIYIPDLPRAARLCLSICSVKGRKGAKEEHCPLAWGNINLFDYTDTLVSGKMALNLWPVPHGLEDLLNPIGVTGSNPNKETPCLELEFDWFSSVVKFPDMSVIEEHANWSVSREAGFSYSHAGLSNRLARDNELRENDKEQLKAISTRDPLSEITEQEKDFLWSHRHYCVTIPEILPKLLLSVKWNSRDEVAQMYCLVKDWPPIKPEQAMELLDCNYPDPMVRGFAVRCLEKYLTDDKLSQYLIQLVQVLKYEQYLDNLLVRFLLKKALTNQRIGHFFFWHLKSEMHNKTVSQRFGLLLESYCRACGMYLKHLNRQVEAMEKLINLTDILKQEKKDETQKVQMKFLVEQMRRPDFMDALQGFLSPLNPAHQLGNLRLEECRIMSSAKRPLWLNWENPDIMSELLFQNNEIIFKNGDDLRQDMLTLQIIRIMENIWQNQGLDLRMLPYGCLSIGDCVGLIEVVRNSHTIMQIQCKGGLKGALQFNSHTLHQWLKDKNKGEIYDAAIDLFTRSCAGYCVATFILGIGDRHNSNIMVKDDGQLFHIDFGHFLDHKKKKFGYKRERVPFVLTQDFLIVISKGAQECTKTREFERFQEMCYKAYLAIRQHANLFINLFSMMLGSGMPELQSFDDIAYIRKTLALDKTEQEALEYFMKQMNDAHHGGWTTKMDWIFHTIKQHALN
T1 sequence (P27986 whole entry partner): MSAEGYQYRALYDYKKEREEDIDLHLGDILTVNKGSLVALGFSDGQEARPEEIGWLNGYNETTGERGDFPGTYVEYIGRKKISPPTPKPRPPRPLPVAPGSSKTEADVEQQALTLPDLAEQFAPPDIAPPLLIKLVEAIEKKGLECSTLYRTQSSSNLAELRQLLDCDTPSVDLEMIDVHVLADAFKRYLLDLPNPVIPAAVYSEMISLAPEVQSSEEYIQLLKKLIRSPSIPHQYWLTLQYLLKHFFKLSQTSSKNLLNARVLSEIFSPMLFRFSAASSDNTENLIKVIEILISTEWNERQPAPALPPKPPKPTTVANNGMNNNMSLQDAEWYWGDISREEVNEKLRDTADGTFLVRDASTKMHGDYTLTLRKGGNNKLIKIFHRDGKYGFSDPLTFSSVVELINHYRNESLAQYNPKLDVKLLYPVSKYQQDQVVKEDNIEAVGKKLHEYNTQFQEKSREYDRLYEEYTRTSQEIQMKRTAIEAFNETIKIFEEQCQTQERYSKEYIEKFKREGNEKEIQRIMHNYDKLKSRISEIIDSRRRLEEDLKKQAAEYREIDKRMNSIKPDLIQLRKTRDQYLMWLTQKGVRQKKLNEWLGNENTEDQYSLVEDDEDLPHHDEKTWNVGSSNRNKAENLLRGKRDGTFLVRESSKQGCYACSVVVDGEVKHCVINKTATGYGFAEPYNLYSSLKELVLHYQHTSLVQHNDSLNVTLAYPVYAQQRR
Kind of test: In vitro IC50, PI3K α (Table 3). The format is biochemical.
Text: as §1

The target in another test is T2, PI3K β (Homo sapiens, UniProt P42338).
T2 construct: purchased Upstate
T2 sequence (P42338 whole entry): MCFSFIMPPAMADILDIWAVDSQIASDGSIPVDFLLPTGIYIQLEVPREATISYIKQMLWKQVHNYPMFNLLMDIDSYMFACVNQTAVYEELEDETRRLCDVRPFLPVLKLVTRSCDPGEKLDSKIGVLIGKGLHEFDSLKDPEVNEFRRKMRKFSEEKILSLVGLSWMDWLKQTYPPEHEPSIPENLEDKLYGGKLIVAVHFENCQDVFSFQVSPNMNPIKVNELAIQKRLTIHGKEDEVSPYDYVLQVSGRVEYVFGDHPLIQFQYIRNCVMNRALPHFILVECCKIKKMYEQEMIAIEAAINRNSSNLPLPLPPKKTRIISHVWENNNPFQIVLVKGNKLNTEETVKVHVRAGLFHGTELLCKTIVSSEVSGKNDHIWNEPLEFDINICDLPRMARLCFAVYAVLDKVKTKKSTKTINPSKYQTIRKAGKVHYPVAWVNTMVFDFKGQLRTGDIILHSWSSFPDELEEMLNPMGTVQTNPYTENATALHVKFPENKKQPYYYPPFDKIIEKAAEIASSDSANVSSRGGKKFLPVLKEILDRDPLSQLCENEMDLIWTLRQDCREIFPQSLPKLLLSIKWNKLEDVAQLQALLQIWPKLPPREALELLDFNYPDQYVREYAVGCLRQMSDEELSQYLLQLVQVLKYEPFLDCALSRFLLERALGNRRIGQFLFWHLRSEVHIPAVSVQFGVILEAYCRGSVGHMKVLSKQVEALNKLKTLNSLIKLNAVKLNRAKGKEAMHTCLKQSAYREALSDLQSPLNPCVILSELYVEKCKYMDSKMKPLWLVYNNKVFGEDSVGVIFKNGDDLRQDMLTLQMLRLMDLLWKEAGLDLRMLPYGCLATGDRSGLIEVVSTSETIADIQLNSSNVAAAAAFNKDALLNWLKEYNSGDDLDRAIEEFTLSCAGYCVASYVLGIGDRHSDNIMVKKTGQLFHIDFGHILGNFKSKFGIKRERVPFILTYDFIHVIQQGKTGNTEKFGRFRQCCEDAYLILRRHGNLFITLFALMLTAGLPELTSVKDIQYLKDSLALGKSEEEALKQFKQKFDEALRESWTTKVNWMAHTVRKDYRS
T2 sequence (P27986 whole entry partner): as the sequence (P27986 whole entry partner) above
Kind of test: In vitro IC50, PI3K β (Table 3). The format is biochemical.
Text: as §1

The next test relates to B cell. Kind of test: B cell proliferation EC50 (Table 3). The format is cell-based.
The next test has as its target PI3K γ (Homo sapiens, UniProt P48736). Kind of test: In vitro IC50, PI3K γ (Table 3). The format is biochemical. Set-up: purchased Sigma.
Text: as §1

For the next test, the system named is NCI-H929. To be noted: NCI-H929 (multiple myeloma); combination with Compound 292. As for the experimental part:
(§2) The method is described as follows. Cells are thawed from a liquid nitrogen preserved state. Once cells have been expanded and divide at their expected doubling times, screening begins. Cells are seeded in growth media in either black 1536-well or 384-well tissue culture treated plates. […] These Tzero (T0) plates are read using ultra-sensitive luminescence on Envision plate readers (Perkin Elmer). […] All data points are collected via automated processes, quality controlled and analyzed using Zalicus software.
(§3) I ranges from 0% (when T=V) to 100% (when T=0). […] The measure of effect in the experiment can be the inhibition of cellular response relative to the untreated level (vehicle alone). For untreated vehicle and treated levels V and T, a fractional inhibition I=1−T/V is calculated. The inhibition ranges from 0% at the untreated level to 100% when T=0. Inhibition levels are negative for agents that actually increase levels. Other effect measures, such as an activity ratio r=T/V may be more appropriate for some assays. When activity ratios (e.g, fold increase over stimulated control) are being used, the effect can be measured using an induction I=ln(T/V). With this definition, all effect expressions are the same as for inhibition.
(§4) Growth Inhibition (GI) is used as a measure of cell viability. […] A GI reading of 100% represents complete growth inhibition −T72 compound-treated and T0 vehicle signals are matched. […] A GI reading of 200% represents complete death of all cells in the culture well. Compounds reaching an activity plateau of GI 200% are considered cytotoxic. GI is calculated by applying the following test and equation: […]
(§5) Combination analysis data were collected in a 6×6 dose matrix. Synergy is calculated by comparing a combination's response to those of its single compound, against the drug-with-itself dose-additive reference model. Deviations from dose additivity may be assessed visually on an isobologram or numerically with a Combination Index (CI). […] Additive effect is CI=1.0. […] Antagonistic effect is CI>1.0.
(§6) To measure combination effects in excess of Loewe additivity, a scalar measure to characterize the strength of synergistic interaction termed the Synergy Score is devised. The Synergy Score is calculated as: […]
(§7) The fractional inhibition for each component agent and combination point in the matrix is calculated relative to the median of all vehicle-treated control wells. The Synergy Score equation integrates the experimentally-observed activity volume at each point in the matrix in excess of a model surface numerically derived from the activity of the component agents using the Loewe model for additivity. Additional terms in the Synergy Score equation (above) are used to normalize for various dilution factors used for individual agents and to allow for comparison of synergy scores across an entire experiment. The inclusion of positive inhibition gating or an Idata multiplier removes noise near the zero effect level, and biases results for synergistic interactions at that occur at high activity levels.

Another test deals with RL. Kind of test: combination screen with BTK inhibitors, 72 hours ATPLite. The format is cell-based. The note with it: RL (follicular lymphoma); combination with Compound 292. As for the experimental part:
as §2, §3, §4, §5, §6
(§8) The fractional inhibition for each component agent and combination point in the matrix is calculated relative to the median of all vehicle-treated control wells. The Synergy Score equation integrates the experimentally-observed activity volume at each point in the matrix in excess of a model surface numerically derived from the activity of the component agents using the Loewe model for additivity. […]

A further test concerns GRANTA-519. To be noted: GRANTA-519 (mantle cell lymphoma); combination with Compound 292. The method, then:
as §2, §3, §4, §5, §6, §7

The subject of another test is HBL-1. To be noted: HBL-1 (DLBCL ABC); combination with Compound 292. As for the experimental part: as §2, §3, §4, §5, §6, §7
The subject of another test is HH. To be noted: HH (T cell lymphoma); combination with Compound 292. The method, then:
as §2, §3, §4, §5, §6, §7

The next test has as its system Jeko-1. To be noted: Jeko-1 (mantle cell lymphoma); combination with Compound 292. The method, then: as §2, §3, §4, §5, §6, §7
The next test deals with KARPAS-299. To be noted: KARPAS-299 (T cell lymphoma); combination with Compound 292. As for the experimental part:
as §2, §3, §4, §5, §6, §7

In another test the test system is KARPAS-422. To be noted: KARPAS-422 (follicular lymphoma); combination with Compound 292. The method, then:
as §2, §3, §4, §5, §6, §7

For the next test, the system named is OCI-LY3. The note with it: OCI-Ly3 (DLBCL ABC); combination with Compound 292. As for the experimental part:
as §2, §3, §4, §5, §6, §7

In another test the test system is OCI-Ly7. To be noted: OCI-Ly7 (DLBCL GCB); combination with Compound 292. As for the experimental part: as §2, §3, §4, §5, §6, §7
The test system of the next test is OPM-2. The note with it: OPM-2 (multiple myeloma); combination with Compound 292. The method, then: as §2, §3, §4, §5, §6, §7
A further test concerns U-2932. To be noted: U-2932 (DLBCL ABC); combination with Compound 292. As for the experimental part:
as §2, §3, §4, §5, §6, §7

The subject of the next test is RPMI-8226. Description: combination screen with BTK inhibitors, 72 hours ATPLite. The format is cell-based. To be noted: RPMI-8226 (multiple myeloma); combination with Compound 292. The method, then: as §2, §3, §4, §5, §6, §8

PI3K δ, sequence (O00329 whole entry): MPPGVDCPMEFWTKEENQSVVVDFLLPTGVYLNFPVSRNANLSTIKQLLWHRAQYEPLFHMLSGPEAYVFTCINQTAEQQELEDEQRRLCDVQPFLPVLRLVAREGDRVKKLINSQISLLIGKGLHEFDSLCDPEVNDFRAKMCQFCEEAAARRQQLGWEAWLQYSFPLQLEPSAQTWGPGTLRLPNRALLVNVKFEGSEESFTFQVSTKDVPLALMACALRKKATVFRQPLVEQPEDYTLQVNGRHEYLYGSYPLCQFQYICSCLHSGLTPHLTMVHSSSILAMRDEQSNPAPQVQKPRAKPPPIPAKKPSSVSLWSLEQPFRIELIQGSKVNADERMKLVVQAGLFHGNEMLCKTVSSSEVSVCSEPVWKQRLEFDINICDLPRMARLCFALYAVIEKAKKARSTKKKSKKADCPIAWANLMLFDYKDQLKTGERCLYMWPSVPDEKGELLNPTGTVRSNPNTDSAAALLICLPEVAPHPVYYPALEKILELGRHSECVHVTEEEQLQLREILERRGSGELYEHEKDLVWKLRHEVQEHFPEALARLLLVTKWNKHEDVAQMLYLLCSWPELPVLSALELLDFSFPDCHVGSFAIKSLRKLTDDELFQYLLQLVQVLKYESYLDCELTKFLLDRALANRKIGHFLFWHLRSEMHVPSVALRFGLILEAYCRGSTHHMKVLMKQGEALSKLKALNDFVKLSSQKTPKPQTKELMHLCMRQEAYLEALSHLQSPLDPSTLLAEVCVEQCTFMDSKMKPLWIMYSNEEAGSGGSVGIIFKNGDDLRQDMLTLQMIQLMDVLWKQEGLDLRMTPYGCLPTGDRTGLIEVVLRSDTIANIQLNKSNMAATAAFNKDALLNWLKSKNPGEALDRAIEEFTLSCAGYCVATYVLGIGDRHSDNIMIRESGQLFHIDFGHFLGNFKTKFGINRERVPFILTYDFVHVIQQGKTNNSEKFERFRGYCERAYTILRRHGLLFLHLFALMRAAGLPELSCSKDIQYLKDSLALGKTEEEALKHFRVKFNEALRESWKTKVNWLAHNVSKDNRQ
PI3K δ, sequence (P27986 whole entry partner): as the sequence (P27986 whole entry partner) above
PI3K γ, sequence (P48736 whole entry): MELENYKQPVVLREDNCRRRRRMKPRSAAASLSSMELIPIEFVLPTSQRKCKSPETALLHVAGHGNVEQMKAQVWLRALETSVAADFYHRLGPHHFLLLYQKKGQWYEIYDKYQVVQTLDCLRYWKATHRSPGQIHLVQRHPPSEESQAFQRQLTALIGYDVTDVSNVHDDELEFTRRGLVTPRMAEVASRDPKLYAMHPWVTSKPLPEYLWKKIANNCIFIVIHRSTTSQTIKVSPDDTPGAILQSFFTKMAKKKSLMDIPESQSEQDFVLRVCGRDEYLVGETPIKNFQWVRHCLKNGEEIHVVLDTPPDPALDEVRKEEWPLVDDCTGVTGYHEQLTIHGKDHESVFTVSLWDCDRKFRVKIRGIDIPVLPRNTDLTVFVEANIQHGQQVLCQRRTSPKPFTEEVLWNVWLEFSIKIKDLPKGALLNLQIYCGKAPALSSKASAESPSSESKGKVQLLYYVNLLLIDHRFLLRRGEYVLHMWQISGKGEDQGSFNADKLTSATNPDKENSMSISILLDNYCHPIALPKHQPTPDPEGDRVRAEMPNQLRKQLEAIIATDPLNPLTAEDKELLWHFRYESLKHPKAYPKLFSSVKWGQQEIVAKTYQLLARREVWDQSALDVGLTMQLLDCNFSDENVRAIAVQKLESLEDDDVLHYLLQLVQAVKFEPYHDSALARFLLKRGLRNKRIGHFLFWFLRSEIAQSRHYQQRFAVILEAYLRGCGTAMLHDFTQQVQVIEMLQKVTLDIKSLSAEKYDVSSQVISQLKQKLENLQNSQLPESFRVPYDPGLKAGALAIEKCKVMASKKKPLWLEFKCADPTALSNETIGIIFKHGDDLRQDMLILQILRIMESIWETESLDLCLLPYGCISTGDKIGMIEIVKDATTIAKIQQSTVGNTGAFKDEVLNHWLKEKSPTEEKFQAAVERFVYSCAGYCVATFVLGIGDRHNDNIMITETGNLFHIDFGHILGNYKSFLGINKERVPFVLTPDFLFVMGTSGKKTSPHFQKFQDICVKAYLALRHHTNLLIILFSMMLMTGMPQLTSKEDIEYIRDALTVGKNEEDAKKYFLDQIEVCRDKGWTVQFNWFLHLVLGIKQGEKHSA

`Cc1ccccc1-n1c(Cn2nc(I)c3c(N)ncnc32)cc2cccc(C)c2c1=O` [Compound 31] registered a 50% inhibitory concentration (IC50) against PI3K δ of under 1 µM.

Take `N#Cc1nn(Cc2cc3ccccc3c(=O)n2-c2ccccc2F)c2ncnc(N)c12` [Compound 169]: the half-inhibitory concentration (IC50) at PI3K α is over 10 µM; on PI3K β, over 10 µM; on PI3K γ it was over 10 µM; at PI3K δ it was under 0.1 µM. The compound further gave an EC50 in the test with B cell of under 1 µM.

As for `C=CC(=O)N1CCC[C@@H](n2nc(-c3ccc(Oc4ccccc4)cc3)c3c(N)ncnc32)C1` [ibrutinib], the “CI50 (growth inhibition)” value in the test on NCI-H929 and in the test on RL was “U (U=0.7 to <1)” each time. In addition, in the test on RL, the “CI50 (inhibition)” value was “W (W=≧1)”.

For the compound `Cc1cccc2cc([C@H](C)Nc3ncnc4[nH]cnc34)n(-c3ccccc3)c(=O)c12` [Compound 238], the IC50 against PI3K α was over 10 µM; against PI3K β it was over 10 µM; against PI3K γ, under 1 µM.

`CC(=O)Nc1nc2cc(-c3nn(Cc4cc5cccc(C)c5c(=O)n4-c4ccccc4)c4ncnc(N)c34)ccc2o1` [Compound 269]: the concentration for half-maximal inhibition (IC50) on PI3K β is under 10 µM; at PI3K γ, under 1 µM; at PI3K δ, under 1 µM.

`Cc1cccc2cc(C(C)n3nc(-c4cn[nH]c4)c4c(N)ncnc43)n(C3CCN(C)CC3)c(=O)c12` (stereo not shown) [Compound 226] gave a half-maximal inhibitory concentration (IC50) against PI3K δ of under 1 µM.

Regarding `Cc1cccc2cc(C(C)Nc3ncnc4[nH]cnc34)n(C3CCN(C)CC3)c(=O)c12` (stereo not shown) [Compound 228], the IC50 against PI3K β is under 10 µM; on PI3K δ, under 1 µM.

With `Cc1cccc2cc([C@H](C)Nc3ncnc4[nH]c(Cl)cc34)n(C3CC3)c(=O)c12` [Compound 280], the half-maximal inhibitory concentration (IC50) on PI3K α, against PI3K β, against PI3K γ and on PI3K δ was over 10 µM each time.

Regarding `C=CC(=O)Nc1cccc(Nc2nc(Nc3ccc(OCCOC)cc3)ncc2F)c1` [AVL-292, N-(3-((5-fluoro-2-((4-(2-methoxyethoxy)phenyl)amino)pyrimidin-4-yl)amino)phenyl)acrylamide], the “CI50 (growth inhibition)” value with GRANTA-519 was “W (W=≧1)”; in the test on Jeko-1 it was “U (U=0.7 to <1)”; in the test with KARPAS-299, “U (U=0.7 to <1)”; in the test on KARPAS-422, “U (U=0.7 to <1)”; with NCI-H929, “U (U=0.7 to <1)”; in the test on OCI-LY3, “U (U=0.7 to <1)”. Moreover, the results for the “CI50 (growth inhibition)” value in the test on OCI-Ly7 and in the test on RPMI-8226 were “W (W=≧1)” and “U (U=0.7 to <1)”, respectively. Moreover, the “CI50 (inhibition)” value is on record as “W (W=≧1)” in the test with HBL-1; “U (U=0.7 to <1)” in the test with HH; “U (U=0.7 to <1)” in the test with Jeko-1; “U (U=0.7 to <1)” with NCI-H929; “U (U=0.7 to <1)” with OPM-2; “W (W=≧1)” in the test with U-2932. The “CI50 (inhibition)” value in the test on RPMI-8226 was “W (W=≧1)”.
